# Where two headings read alike, the source gives them in different places.
# Experiments:
# Type in all cases: cell-based
# [1] = system: MHCC97L liver cancer cell strains; test: Tetrazolium salt reduction method (MTT) on human liver cancer cell strain MHCC97L
# Description: 3. human liver cancer cell strains MHCC97L model discrimination
# (§1) Tested methods: Tetrazolium salt reduction method (MTT)
# (1) Inoculating cells: Inoculating cells: A uniform cell suspension was prepared with culture solution containing fetal calf serum (10%). The suspension was implanted into a 96-well cell culture disc by 1000-10000 cells/200 μL per well.
# (§2) (2) Culturing cells: The cells were cultured for 3-5 days according to known methods in the art (culturing time depending on experiment objective and requirement).
# (§3) (3) Colour response: The cells were cultured for 3-5 days, 20 μl of MTT solution (5 mg/mL, PBS <pH=7.4>) was added in each well, incubated for 4 h. Culture was terminated and the culture suspension was carefully sucked out. As for suspension cells, they need be centrifuged before suspension solution in wells was sucked out. 150 μL of DMSO was added in each well, vibrated for 10 min. The crystal was fully dissolved.
# (§4) (4) Colorimetry: Light absorbance values in each well were measured by ELISA at 490 nm and the results were recorded. The cell growth curve was drawn with time as the abscissa and absorbance values as vertical coordinates.
# Model principle: Dehydrogenase related to NADP exists in mitochondria of living cell. Yellow MTT is reduced to insoluble blue-purple Formanzan. Dehydrogenase is disappeared in dead cell and MTT can not be reduced. According to reduction extent, action effect of sample on tumor cell is defected.
# [2] = system: PLC/PRF/5 liver cancer cell strains; test: Tetrazolium salt reduction method (MTT) on human liver cancer cell strain PLC/PRF/5
# Description: 2. human liver cancer cell strains PLC/PRF/5 model discrimination
# as §1
# (1) Inoculating cells: A uniform cell suspension was prepared with culture solution containing fetal calf serum (10%). The suspension was implanted into a 96-well cell culture disc by 1000-10000 cells/200 μL per well.
# as §2, §3, §4
# Model principle: Dehydrogenase related to NADP exists in mitochondria of living cell. Yellow MIT is reduced to insoluble blue-purple Formanzan. Dehydrogenase is disappeared in dead cell and MIT can not be reduced. According to reduction extent, action effect of sample on tumor cell is defected.
# BEL-7402 cell = test: Sulforhodamine B (SRB) growth inhibition of human liver cancer cell strain BEL-7402; conditions: for inhibition at 10 µM: Homo sapiens, read-out: BEL-7402/ Inhibition (%)
# Description: 1. human liver cancer cell strains BEL-7402 model discrimination
# Tested methods: Sulforhodamine B (SRB)
# According to growth rate of tumor cells, the adherent cells in logarithmic growth phase was implanted into a 96-well cell culture plate by 200 μL per well. Adhering for 24 h before dosing, each concentration was set with 3 holes. The corresponding concentration of saline as for control group and withering holes without cells. The tumor cells were cultured for 72 h under 5% CO2 at 37° C.
# The culture plate was takene out, 50 uL of trichloro acetic acid TCA fixed cells which were diluted to 50% (m/v) were added to each well. The plate was kept for 1 h at 4° C. If suspension cells are cultured, 50 uL cold TCA (80%) was added to each well. Final concentration of TCA is 16%, standed for 5 min, kept in a refrigerator for 1 h at 4° C.
# Stationary liquid was sucked out, washed by 5 times with distilled water, dried in the air.
# After drying in the air, 100 μL of SRB solution was added in each well, kept for 10-30 min at the room temperature.
# The supernatant was sucked out, washed by 5 times with acetic acid (1%), dried in the air.
# 150 μL Tris solution was added in each well, vibrated for 5 min on the tablet oscillator.
# OD values were measured with ELISA at 515 nm, zeroed with blank control.
# Growth inhibition ratio of tumor cells was calculated according to the following formula: Inhibition=[(OD515control hole−OD515dosing hole)/OD515control hole]×100%.
# According to inhibition ratio of different concentration, IC50 was determined with Logit method. Above experiment was repeated 2-3 times to give average IC50 values as for final index.
# Model principle: SRB is a kind of protein binding dye which can be binded with basic amino acid in biological macromolecules. OD values in specific wavelength range have linear relationship with cell number. According to OD values of binding substance, action effect of sample on tumor cell is defected.
# [3] = Homo sapiens, MHCC97L, read-out: MHCC97L IC50 (μM)
# [4] = Homo sapiens, PLC-PRF-5, read-out: PLC/PRF/5 IC50 (μM)
# [5] = MTT, cells cultured 3-5 days, read-out: MHCC97L IC50
# [6] = MTT, cells cultured 3-5 days, read-out: PLC/PRF/5 IC50
# [7] = 1.00 × 10^−5 mol/L, SRB, cells cultured 72 h
# [8] = Bel-7402, 1.00 × 10^−5 mol/L, SRB, cells cultured 72 h
SMILES,"IC50 [1, 3] [µM]","IC50 [2, 4] [µM]","inhibition at 10 µM (BEL-7402 cell; Bel-7402, 72 h) [%]","IC50 [1, 5] [µM]","IC50 [2, 6] [µM]",BEL-7402/ Inhibition (%) (BEL-7402 cell; [7]),inhibition at 10 µM (BEL-7402 cell; [8]) [%]
C=CC(=O)Nc1cc(OC)c2cc1C[C@H]1c3c(cc(OC)c(OC)c3Oc3cc4c(cc3OC)CCN(C)[C@H]4Cc3ccc(cc3)O2)CCN1C [Compound H-10],10.4,10.7,87.74 ± 0.63,–,–,–,–
COc1cc(NC(=O)c2ccco2)c2cc1Oc1ccc(cc1)C[C@H]1c3cc(c(OC)cc3CCN1C)Oc1c(OC)c(OC)cc3c1[C@H](C2)N(C)CC3 [Compound H-15],–,–,–,2.1,2.5,87.23 ± 2.26,–
COc1cc(NC(=O)c2cccs2)c2cc1Oc1ccc(cc1)C[C@H]1c3cc(c(OC)cc3CCN1C)Oc1c(OC)c(OC)cc3c1[C@H](C2)N(C)CC3 [Compound H-16],–,–,–,11.9,9,93.40 ± 4.70,–
COc1cc(NS(=O)(=O)c2ccc([N+](=O)[O-])cc2)c2cc1Oc1ccc(cc1)C[C@H]1c3cc(c(OC)cc3CCN1C)Oc1c(OC)c(OC)cc3c1[C@H](C2)N(C)CC3 [Compound H-19],–,–,–,9.4,11.6,92.70 ± 0.55,–
COc1cc(NS(=O)(=O)c2ccc(C)cc2)c2cc1Oc1ccc(cc1)C[C@H]1c3cc(c(OC)cc3CCN1C)Oc1c(OC)c(OC)cc3c1[C@H](C2)N(C)CC3 [Compound H-20],–,–,–,12.5,11,93.91 ± 0.40,–
COc1cc(NS(=O)(=O)c2ccc(Cl)cc2)c2cc1Oc1ccc(cc1)C[C@H]1c3cc(c(OC)cc3CCN1C)Oc1c(OC)c(OC)cc3c1[C@H](C2)N(C)CC3 [Compound H-24],–,–,–,8.2,9.1,90.01 ± 2.82,–
COc1cc(NC(=O)N2CCOCC2)c2cc1Oc1ccc(cc1)C[C@H]1c3cc(c(OC)cc3CCN1C)Oc1c(OC)c(OC)cc3c1[C@H](C2)N(C)CC3 [Compound H-26],–,–,–,10.8,12.2,89.60 ± 2.01,–
"COc1cccc2c1C(=O)c1c(O)c3c(c(O)c1C2=O)C[C@@](O)(C(=O)CO)C[C@@H]3O[C@H]1C[C@H](N)[C@H](O)[C@H](C)O1 [Doxorubicin, reference compound]",–,–,–,–,–,–,57.8 ± 4.05
"COc1ccc2cc1Oc1ccc(cc1)C[C@H]1c3cc(c(OC)cc3CCN1C)Oc1c(O)c(OC)cc3c1[C@H](C2)N(C)CC3 [Tetrandrine B, reference compound]",12.8,16.9,23.9 ± 3.65,–,–,–,–
"COc1ccc2cc1Oc1ccc(cc1)C[C@H]1c3cc(c(OC)cc3CCN1C)Oc1c(OC)c(OC)cc3c1[C@H](C2)N(C)CC3 [Tetrandrine, 6,6′,7,12-tetramethoxy-2,2′-dimethyl berbamine, reference compound]",–,–,–,–,–,–,53.9 ± 3.72

# Source: patent US10189812B2, “Bi-benzyl isoquinoline derivative, preparation method and use thereof in hepatopathy treatment and prevention” (THE KEY LABORATORY OF CHEMISTRY FOR NATURAL PRODUCTS OF …, priority 2014, dated 2019)
